Measurements published in ChEMBL document CHEMBL1765046, “Small molecule inhibitor of the RPA70 N-terminal protein interaction domain discovered using in silico and in vitro methods” (Bioorg Med Chem, 2011).
The source made the active and inactive calls. The rule behind the calls is not given here.

Assays:
[1] = biological target: Replication protein A 70 kDa DNA-binding subunit (Homo sapiens) (UniProt P27694); assay: Inhibition of recombinant human N-terminal domain of RPA70 DNA binding domain-F binding to 30-mer double strand DNA at <100 uM preincubated for 5mins before dsDNA addition measured after 30 mins by electrophoretic mobility shift assay
Chain of Replication protein A 70 kDa DNA-binding subunit (Homo sapiens) (P27694 whole entry, the tested form may be a part): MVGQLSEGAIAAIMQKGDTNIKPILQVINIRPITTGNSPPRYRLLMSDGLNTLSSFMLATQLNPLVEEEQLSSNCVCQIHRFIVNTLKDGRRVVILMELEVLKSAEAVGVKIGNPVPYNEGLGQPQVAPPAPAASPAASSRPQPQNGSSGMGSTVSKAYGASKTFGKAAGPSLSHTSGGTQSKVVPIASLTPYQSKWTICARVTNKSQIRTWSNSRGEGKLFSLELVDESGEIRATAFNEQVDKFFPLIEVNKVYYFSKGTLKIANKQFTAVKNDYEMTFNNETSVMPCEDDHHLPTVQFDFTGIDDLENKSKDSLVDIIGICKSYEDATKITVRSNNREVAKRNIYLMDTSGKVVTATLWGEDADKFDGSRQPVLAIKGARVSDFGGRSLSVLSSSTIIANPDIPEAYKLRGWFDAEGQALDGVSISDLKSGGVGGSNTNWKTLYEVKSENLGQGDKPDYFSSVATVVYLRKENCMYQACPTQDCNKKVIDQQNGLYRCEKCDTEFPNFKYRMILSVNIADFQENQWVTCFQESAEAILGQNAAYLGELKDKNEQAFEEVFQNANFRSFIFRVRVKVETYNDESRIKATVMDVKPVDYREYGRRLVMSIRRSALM

[2] = biological target: Cellular tumor antigen p53/Replication protein A 70 kDa DNA-binding subunit (Homo sapiens, UniProt P04637+P27694); assay: Inhibition of GST-tagged p53/recombinant human N-terminal domain of RPA70 DNA binding domain interaction by ELISA-like plate binding assay
Chain of Cellular tumor antigen p53/Replication protein A 70 kDa DNA-binding subunit (P04637 whole entry, the tested form may be a part): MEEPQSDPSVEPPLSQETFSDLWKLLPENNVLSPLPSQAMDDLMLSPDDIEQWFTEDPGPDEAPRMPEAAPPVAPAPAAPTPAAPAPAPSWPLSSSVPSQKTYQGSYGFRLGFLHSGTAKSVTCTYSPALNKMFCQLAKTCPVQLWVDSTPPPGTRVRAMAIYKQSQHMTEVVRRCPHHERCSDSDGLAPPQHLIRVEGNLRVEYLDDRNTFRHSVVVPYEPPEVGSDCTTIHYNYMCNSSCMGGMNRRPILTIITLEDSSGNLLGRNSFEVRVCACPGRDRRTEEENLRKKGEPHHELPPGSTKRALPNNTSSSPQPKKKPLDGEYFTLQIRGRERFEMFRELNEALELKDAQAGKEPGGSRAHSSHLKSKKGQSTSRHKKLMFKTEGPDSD
Chain of Cellular tumor antigen p53/Replication protein A 70 kDa DNA-binding subunit (P27694 whole entry, the tested form may be a part): as the sequence (P27694 whole entry, the tested form may be a part) above

[3] = biological target: Replication protein A 70 kDa DNA-binding subunit (Homo sapiens) (UniProt P27694); assay: Inhibition of recombinant human N-terminal domain of RPA70 DNA binding domain-F binding to 30-mer single strand DNA at <100 uM preincubated for 5mins before ssDNA addition measured after 30 mins by electrophoretic mobility shift assay

inhibition [1]: Active
IC50 [2]: 10 µM
inhibition [3]: inactive
Compound: CC(C)C1=CC23CCC4C(C)(C(=O)O)CCCC4(C)C2CC1C(C(=O)O)C3C(=O)O (stereo not drawn)
